Patent publication US20250179103A1, “6-OXODECAHYDROPYRROLO[1,2-A][1,5]DIAZOCINE AND 6-OXODECAHYDRO-4H-PYRROLO[2,1-D][1,5]THIAZOCINE DERIVATIVES AS STAT3 AND STAT6 MODULATORS FOR THE TREATMENT OF CANCER AND INFLAMMATORY CONDITIONS” (Recludix Pharma, Inc., priority 2022, published 2025)

What was measured:
[1] = biological target: T1, Recombinant STAT6 protein (STAT6(W123-T658)) (Homo sapiens, UniProt P42226); test: STAT6 Fluorescence Polarization (FP) Assay; format: binding; details: STAT6(W123-T658) 250 nM, probe 5-FAM-ApYKPFQDLI-NH2 2 nM, 45-minute incubation
T1 construct: Recombinant STAT6 protein (STAT6(W123-T658))
T1 sequence (P42226 123-658): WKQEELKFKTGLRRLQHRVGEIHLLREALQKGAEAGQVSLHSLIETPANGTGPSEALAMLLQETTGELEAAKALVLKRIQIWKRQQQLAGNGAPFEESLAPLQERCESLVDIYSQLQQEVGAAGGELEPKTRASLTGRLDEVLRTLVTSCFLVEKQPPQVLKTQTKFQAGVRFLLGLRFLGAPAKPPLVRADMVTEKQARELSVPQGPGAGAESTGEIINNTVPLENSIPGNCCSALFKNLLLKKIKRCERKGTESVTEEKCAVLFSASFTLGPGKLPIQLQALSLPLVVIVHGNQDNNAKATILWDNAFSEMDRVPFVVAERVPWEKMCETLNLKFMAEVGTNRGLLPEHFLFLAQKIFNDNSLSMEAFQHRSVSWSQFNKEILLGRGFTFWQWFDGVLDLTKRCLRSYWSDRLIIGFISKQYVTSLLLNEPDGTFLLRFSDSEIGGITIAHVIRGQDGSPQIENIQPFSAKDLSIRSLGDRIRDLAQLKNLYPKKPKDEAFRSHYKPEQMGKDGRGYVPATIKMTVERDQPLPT
Method: STAT6 Fluorescence Polarization (FP) Assay
An FP assay was developed to determine IC50 values for test substances. Recombinant STAT6 protein (STAT6(W123-T658)) at 250 nM was combined with a fluorescently labeled, phosphotyrosine peptide probe (5-FAM-ApYKPFQDLI-NH2) at 2 nM in FP buffer (10 mM HEPES pH 7.4, 50 mM NaCl, 1 mM EDTA, 0.05% Tween 20.2 mM DTT). 50 μL of STAT6-probe mixture was added to serial diluted compounds in black, 96-well plates (Greiner BioOne 655076) to a final concentration of 1% DMSO. Reaction components were mixed, and FP was measured after 45-minute incubation at room temperature using a Tecan Spark multimode plate reader. FP signal (mP) was plotted against the log concentration of the test substances and IC50 values were calculated by nonlinear regression analysis using GraphPad Prism software. For STAT6 FP assay, A=≤300 nM; B=>300-3000 nM; C=>3-30 μM; and D=>30 μM.

[2] = biological target: T2, Recombinant STAT3 protein (STAT3(G127-I722)) (Homo sapiens, UniProt P40763); test: STAT3 Fluorescence Polarization (FP) Assay; format: binding; details: STAT3(G127-I722) 25 nM, probe 5-FAM-GpYLPQTV-NH2 2 nM, 45-minute incubation
T2 construct: Recombinant STAT3 protein (STAT3(G127-I722))
Method: STAT3 Fluorescence Polarization (FP) Assay
An FP assay was developed to determine IC50 values for test substances. Recombinant STAT3 protein (STAT3(G127-I722)) at 25 nM was combined with a fluorescently labeled, phosphotyrosine peptide probe (5-FAM-GpYLPQTV-NH2) at 2 nM in FP buffer (10 mM HEPES pH 7.4, 50 mM NaCl, 1 mM EDTA, 0.05% Tween 20.2 mM DTT). 50 μL of STAT3-probe mixture was added to serial diluted compounds in black, 96-well plates (Greiner BioOne 655076) to a final concentration of 1% DMSO. Reaction components were mixed, and FP was measured after 45-minute incubation at room temperature using a Tecan Spark multimode plate reader. FP signal (mP) was plotted against the log concentration of the test substances and IC50 values were calculated by nonlinear regression analysis using GraphPad Prism software. For STAT3 FP assay, A=≤100 nM; B=>100-1000 nM; C=>1-10 μM; and D=>10 μM.

T2 sequence (P40763 127-722): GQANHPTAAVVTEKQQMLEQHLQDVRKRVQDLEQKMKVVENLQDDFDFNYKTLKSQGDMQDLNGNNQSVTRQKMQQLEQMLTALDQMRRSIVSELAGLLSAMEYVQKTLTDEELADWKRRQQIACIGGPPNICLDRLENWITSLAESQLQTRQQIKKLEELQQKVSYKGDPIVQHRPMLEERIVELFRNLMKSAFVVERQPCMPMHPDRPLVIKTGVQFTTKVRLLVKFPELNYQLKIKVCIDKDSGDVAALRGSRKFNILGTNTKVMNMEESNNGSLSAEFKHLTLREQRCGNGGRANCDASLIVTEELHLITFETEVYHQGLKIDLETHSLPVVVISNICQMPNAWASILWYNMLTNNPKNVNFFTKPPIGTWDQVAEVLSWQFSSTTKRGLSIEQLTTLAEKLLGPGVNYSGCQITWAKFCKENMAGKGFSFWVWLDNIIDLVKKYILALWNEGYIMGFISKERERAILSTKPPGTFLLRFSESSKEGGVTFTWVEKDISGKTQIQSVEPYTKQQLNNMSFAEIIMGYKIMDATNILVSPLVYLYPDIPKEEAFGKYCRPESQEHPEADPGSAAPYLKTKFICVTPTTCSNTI

Row | IC50 [1] [nM] | IC50 [2] [nM] | Structure (SMILES)
1 | ≤ 300 | 1000 to 10000 | CC(=O)N1CCC(NC(=O)c2ccc3ccc(C(F)(F)P(=O)(O)O)cc3c2)C(=O)N2C(CCC2C(=O)N2CC(C#N)C(c3ccccc3)C2)C1 (mixture of isomers) [Compound 4, ((7-(((5S,8S,10aR)-2-acetyl-8-((rel-trans)-3-cyano-4-phenylpyrrolidine-1-carbonyl)-6-oxodecahydropyrrolo[1,2-a][1,4]diazocin-5-yl)carbamoyl)naphthalen-2-yl)difluoromethyl)phosphonic Acid]
2 | ≤ 300 | 100 to 1000 | N#CC1CN(C(=O)C2CCC3CCN(C(=O)OCc4ccccc4)CC(NC(=O)c4cc5cc(C(F)(F)P(=O)(O)O)ccc5s4)C(=O)N32)CC1c1ccccc1 (mixture of isomers) [Compound 9, ((2-(((5S,8S,10aR)-3-((benzyloxy)carbonyl)-8-((rel-trans)-3-cyano-4-phenylpyrrolidine-1-carbonyl)-6-oxodecahydropyrrolo[1,2-a][1,5]diazocin-5-yl)carbamoyl)benzo[b]thiophen-5-yl)difluoromethyl)phosphonic acid]
3 | ≤ 300 | 1000 to 10000 | N#CC1CN(C(=O)C2CCC3CCNCC(NC(=O)c4cc5cc(C(F)(F)P(=O)(O)O)ccc5s4)C(=O)N32)CC1c1ccccc1 (mixture of isomers) [Compound 10, ((2-(((5S,8S,10aR)-8-((rel-trans)-3-cyano-4-phenylpyrrolidine-1-carbonyl)-6-oxodecahydropyrrolo[1,2-a][1,5]diazocin-5-yl)carbamoyl)benzo[b]thiophen-5-yl)difluoromethyl)phosphonic Acid]
4 | ≤ 300 | 1000 to 10000 | N#CC1CN(C(=O)C2CCC3CNCCC(NC(=O)c4ccc5ccc(C(F)(F)P(=O)(O)O)cc5c4)C(=O)N32)CC1c1ccccc1 (mixture of isomers) [Compound 211, ((7-(((5S,8S,10aR)-8-((rel-trans)-3-cyano-4-phenylpyrrolidine-1-carbonyl)-6-oxodecahydropyrrolo[1,2-a][1,4]diazocin-5-yl)carbamoyl)naphthalen-2-yl)difluoromethyl)phosphonic acid]
5 | 300 to 3000 | 1000 to 10000 | CC(=O)N1CC[C@H]2CC[C@@H](C(=O)N3C[C@@H](O)[C@H](n4ccnn4)C3)N2C(=O)[C@@H](NC(=O)c2ccc3ccc(C(F)(F)P(=O)(O)O)cc3c2)C1 (relative stereo) [Compound 5, ((7-(((5S,8S,10aR)-3-acetyl-8-((3R,4R)-3-hydroxy-4-(1H-1,2,3-triazol-1-yl)pyrrolidine-1-carbonyl)-6-oxodecahydropyrrolo[1,2-a][1,5]diazocin-5-yl)carbamoyl)naphthalen-2-yl)difluoromethyl)phosphonic Acid]
6 | ≤ 300 | 1000 to 10000 | CC(=O)N1CC[C@H]2CC[C@@H](C(=O)N3CC(c4ccccc4)[C@@H](c4ccccc4)C3)N2C(=O)[C@@H](NC(=O)c2cc3cc(C(F)(F)P(=O)(O)O)ccc3s2)C1 (relative stereo) [Compound 143, ((2-(((5S,8S,10aR)-3-acetyl-8-((rel-trans)-3,4-diphenylpyrrolidine-1-carbonyl)-6-oxodecahydropyrrolo[1,2-a][1,5]diazocin-5-yl)carbamoyl)benzo[b]thiophen-5-yl)difluoromethyl)phosphonic acid]

Second part, the compound before the results:

Row | Structure (SMILES) | IC50 [1] [nM] | IC50 [2] [nM]
7 | CC(=O)N1CC[C@H]2CC[C@@H](C(=O)N3C[C@H](c4ccccc4)[C@@H](O)C3)N2C(=O)[C@@H](NC(=O)c2cc3cc(C(F)(F)P(=O)(O)O)ccc3s2)C1 (relative stereo) [Compound 60, ((2-(((5S,8S,10aR)-3-acetyl-8-((rel-trans)-3-hydroxy-4-phenylpyrrolidine-1-carbonyl)-6-oxodecahydropyrrolo[1,2-a][1,5]diazocin-5-yl)carbamoyl)benzo[b]thiophen-5-yl)difluoromethyl)phosphonic acid] | ≤ 300 | 1000 to 10000
8 | CC(=O)N1CC[C@H]2CC[C@@H](C(=O)N3CC(c4cn[nH]c4)[C@@H](C#N)C3)N2C(=O)[C@@H](NC(=O)c2cc3cc(C(F)(F)P(=O)(O)O)ccc3s2)C1 (relative stereo) [Compound 141, ((2-(((5S,8S,10aR)-3-acetyl-8-((rel-trans)-3-cyano-4-(1H-pyrazol-4-yl)pyrrolidine-1-carbonyl)-6-oxodecahydropyrrolo[1,2-a][1,5]diazocin-5-yl)carbamoyl)benzo[b]thiophen-5-yl)difluoromethyl)phosphonic acid] | 300 to 3000 | 1000 to 10000
9 | CC(=O)N1CC[C@H]2CC[C@@H](C(=O)N3CC(c4cc(F)cc(F)c4)[C@@H](C#N)C3)N2C(=O)[C@@H](NC(=O)c2cc3cc(C(F)(F)P(=O)(O)O)ccc3s2)C1 (relative stereo) [Compound 142, ((2-(((5S,8S,10aR)-3-acetyl-8-((rel-trans)-3-cyano-4-(3,5-difluorophenyl)pyrrolidine-1-carbonyl)-6-oxodecahydropyrrolo[1,2-a][1,5]diazocin-5-yl)carbamoyl)benzo[b]thiophen-5-yl)difluoromethyl)phosphonic acid] | ≤ 300 | 1000 to 10000
10 | COc1ccccc1C1CN(C(=O)[C@@H]2CC[C@@H]3CCN(C(C)=O)C[C@H](NC(=O)c4cc5cc(C(F)(F)P(=O)(O)O)ccc5s4)C(=O)N32)C[C@@H]1C#N (relative stereo) [Compound 144, ((2-(((5S,8S,10aR)-3-acetyl-8-((rel-trans)-3-cyano-4-(2-methoxyphenyl)pyrrolidine-1-carbonyl)-6-oxodecahydropyrrolo[1,2-a][1,5]diazocin-5-yl)carbamoyl)benzo[b]thiophen-5-yl)difluoromethyl)phosphonic acid] | ≤ 300 | 1000 to 10000
11 | CC(=O)N1CC[C@H]2CC[C@@H](C(=O)N3CC(c4cc[nH]c(=O)c4)[C@@H](C#N)C3)N2C(=O)[C@@H](NC(=O)c2cc3cc(C(F)(F)P(=O)(O)O)ccc3s2)C1 (relative stereo) [Compound 145, ((2-(((5S,8S,10aR)-3-acetyl-8-((rel-trans)-3-cyano-4-(2-oxo-1,2-dihydropyridin-4-yl)pyrrolidine-1-carbonyl)-6-oxodecahydropyrrolo[1,2-a][1,5]diazocin-5-yl)carbamoyl)benzo[b]thiophen-5-yl)difluoromethyl)phosphonic acid] | ≤ 300 | 100 to 1000
12 | CC(=O)N1CC[C@H]2CC[C@@H](C(=O)N3CC(c4ccc(=O)[nH]c4)[C@@H](C#N)C3)N2C(=O)[C@@H](NC(=O)c2cc3cc(C(F)(F)P(=O)(O)O)ccc3s2)C1 (relative stereo) [Compound 146, ((2-(((5S,8S,10aR)-3-acetyl-8-((rel-trans)-3-cyano-4-(6-oxo-1,6-dihydropyridin-3-yl)pyrrolidine-1-carbonyl)-6-oxodecahydropyrrolo[1,2-a][1,5]diazocin-5-yl)carbamoyl)benzo[b]thiophen-5-yl)difluoromethyl)phosphonic acid] | 300 to 3000 | 100 to 1000
13 | COc1ccc(C2CN(C(=O)[C@@H]3CC[C@@H]4CCN(C(C)=O)C[C@H](NC(=O)c5cc6cc(C(F)(F)P(=O)(O)O)ccc6s5)C(=O)N43)C[C@@H]2C#N)cn1 (relative stereo) [Compound 147, ((2-(((5S,8S,10aR)-3-acetyl-8-((rel-trans)-3-cyano-4-(6-methoxypyridin-3-yl)pyrrolidine-1-carbonyl)-6-oxodecahydropyrrolo[1,2-a][1,5]diazocin-5-yl)carbamoyl)benzo[b]thiophen-5-yl)difluoromethyl)phosphonic acid] | 300 to 3000 | 100 to 1000
